# Target: Recombinant human cathepsin A (Homo sapiens (Human), UniProt P10619)
# Assay: Cathepsin A inhibitory activity (Bodipy FL-labeled bradykinin substrate, microfluidic capillary electrophoresis)
# Format: biochemical
# Details: Cathepsin A inhibitory activity, read-out: CATHA IC50
# Experimental: Pharmacological Tests a) Cathepsin a Inhibitory Activity
# Recombinant human cathepsin A (residues 29-480, with a C-terminal 10-His tag; R&D Systems, #1049-SE) was proteolytically activated with recombinant human cathepsin L (R&D Systems, #952-CY). Briefly, cathepsin A was incubated at 10 μg/ml with cathepsin L at 1 μg/ml in activation buffer (25 mM 2-(morpholin-4-yl)-ethanesulfonic acid (MES), pH 6.0, containing 5 mM dithiothreitol (DTT)) for 15 min at 37° C.
# The activated cathepsin A was diluted in assay buffer (25 mM MES, pH 5.5, containing 5 mM DTT) and mixed with the test compound (dissolved in assay buffer containing (v/v) 3% DMSO) or, in the control experiments, with the vehicle in a multiple assay plate. After incubation for 15 min at room temperature, as substrate then bradykinin carrying an N-terminal® Bodipy FL (4,4-difluoro-5,7-dimethyl-4-bora-3a,4a-diaza-s-indacene-3-propionyl) label (JPT Peptide Technologies GmbH; dissolved in assay buffer) was added to the mixture. The final concentration of cathepsin A was 833 ng/ml and the final concentration of labeled bradykinin 2 μM. After incubation for 15 min at room temperature the reaction was stopped by the addition of stop buffer (130 mM 2-(4-(2-hydroxy-ethyl)-piperazin-1-yl)-ethanesulfonic acid, pH 7.4, containing (v/v) 0.013%° Triton X-100, 0.13% Coating Reagent 3 (Caliper Life Sciences), 6.5% DMSO and 20 μM ebelactone B (Sigma, #E0886)).
# Uncleaved substrate and product were then separated by a microfluidic capillary electrophoresis on a LabChip® 3000 Drug Discovery System (12-Sipper-Chip; Caliper Life Sciences) and quantified by determination of the respective peak areas. Substrate turnover was calculated by dividing product peak area by the sum of substrate and product peak areas, and the enzyme activity and the inhibitory effect of the test compound thus quantified.
# Recombinant human cathepsin A, sequence (P10619 29-326): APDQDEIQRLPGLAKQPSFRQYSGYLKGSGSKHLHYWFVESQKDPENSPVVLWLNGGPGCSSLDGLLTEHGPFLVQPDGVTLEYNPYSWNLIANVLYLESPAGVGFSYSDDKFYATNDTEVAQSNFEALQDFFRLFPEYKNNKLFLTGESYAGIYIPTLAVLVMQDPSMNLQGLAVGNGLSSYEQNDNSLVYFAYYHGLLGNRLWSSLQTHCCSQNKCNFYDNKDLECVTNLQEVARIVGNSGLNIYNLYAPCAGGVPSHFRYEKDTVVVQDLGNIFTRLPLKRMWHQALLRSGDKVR
# Recombinant human cathepsin A, sequence (P10619 327-480): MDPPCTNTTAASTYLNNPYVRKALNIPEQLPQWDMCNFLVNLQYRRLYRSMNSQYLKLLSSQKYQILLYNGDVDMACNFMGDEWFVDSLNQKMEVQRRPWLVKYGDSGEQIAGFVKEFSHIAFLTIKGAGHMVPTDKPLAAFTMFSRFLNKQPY
row,IC50 [µM],SMILES
1,1.77,NC(=O)c1ccccc1-c1cc(F)cc(C(CC(=O)O)c2ncco2)c1 (centres unmarked) [compound 134]
2,1.69,Cc1cnc(C(CC(=O)O)c2cc(F)cc(-c3ccccc3C#N)c2)s1 (centres unmarked) [compound 131]
3,1.72,O=C(O)CC(c1cc(F)cc(-c2ccccc2F)c1)c1ncco1 (centres unmarked) [compound 133]
4,1.16,Cc1ccc(-c2cc(F)cc(C(CC(=O)O)c3ncco3)c2)c(F)c1 (centres unmarked) [compound 125]
5,4.94,COc1ccc(-c2ccccc2)cc1C(CC(=O)O)c1nccs1 (centres unmarked) [compound 168]
6,0.437,Cc1ccc(F)c(-c2cc(F)cc(C(CC(=O)O)c3ncc(C)s3)c2)c1 (centres unmarked) [compound 118]
7,1.45,O=C(O)CC(c1cc(F)cc(-c2cccc(F)c2F)c1)c1ncco1 (centres unmarked) [compound 129]
8,2.28,O=C(O)CC(c1cc(F)cc(-c2cccc(OC(F)(F)F)c2)c1)c1ncco1 (centres unmarked) [compound 138]
9,1.49,O=C(O)CC(c1cc(F)cc(-c2cc(F)ccc2F)c1)c1ncco1 (centres unmarked) [compound 130]
10,2.03,N#Cc1ccccc1-c1cc(F)cc(C(CC(=O)O)c2ncco2)c1 (centres unmarked) [compound 137]
11,0.935,Cc1nnc(C(CC(=O)O)c2cccc(-c3ccccc3)c2)o1 (centres unmarked) [compound 167]

# Same assay, conditions: read-out: CATHA IC50
row,IC50 [µM],SMILES
1,2.31,CC(C)COc1cc(F)cc(-c2cccc(C(CC(=O)O)c3nccs3)c2)c1 (centres unmarked) [compound 31]
2,3.62,O=C(O)CC(c1cccc(-c2cc(C(F)(F)F)ccc2F)c1)c1nccs1 (centres unmarked) [compound 13]
3,0.221,Cc1cnc(C(CC(=O)O)c2cc(Cl)cc(-c3ccccc3OC(F)(F)F)c2)s1 (centres unmarked) [compound 104]
4,15.1,Cn1nccc1-c1cccc(C(CC(=O)O)c2nccs2)c1 (centres unmarked) [compound 42]
5,2.25,O=C(O)CC(c1cccc(-c2cccc(OC(F)(F)F)c2)c1)c1nccs1 (centres unmarked) [compound 28]
6,1.31,COc1ccc(-c2cccc(Cl)c2C)cc1C(CC(=O)O)c1ncc(C)s1 (centres unmarked) [compound 67]
7,11.6,O=C(O)CC(c1cccc(-c2cccnc2Cl)c1)c1nccs1 (centres unmarked) [compound 41]
8,3.28,COc1ccc(-c2ccccc2C)cc1C(CC(=O)O)c1ncc(C)s1 (centres unmarked) [compound 78]
9,2.29,O=C(O)CC(c1cccc(-c2ccc(OCC3CC3)cc2)c1)c1nccs1 (centres unmarked) [compound 30]
10,4.39,COc1ccc(-c2ccc(F)cc2)cc1C(CC(=O)O)c1ncc(C)s1 (centres unmarked) [compound 84]
11,2.81,CC(C)COc1ccc(-c2cccc(C(CC(=O)O)c3nccs3)c2)cc1 (centres unmarked) [compound 36]
12,3.57,COc1ccc(-c2ccc(Cl)cc2F)cc1C(CC(=O)O)c1ncc(C)s1 (centres unmarked) [compound 79]
13,23.2,Cc1nnc(C(CC(=O)O)c2cccc(-c3ccncc3)c2)o1 (centres unmarked) [compound 16]
14,2.3,COc1ccc(-c2cccc(C)c2C)cc1C(CC(=O)O)c1ncc(C)s1 (centres unmarked) [compound 71]
15,0.634,Cc1nnc(C(CC(=O)O)c2cccc(-c3cccc(Cl)c3Cl)c2)o1 (centres unmarked) [compound 15]
16,0.197,Cc1cnc(C(CC(=O)O)c2cc(Cl)cc(-c3cccc(Cl)c3F)c2)s1 (centres unmarked) [compound 103]
17,0.989,COc1ccc(-c2cccc(C(CC(=O)O)c3ncc(C)s3)c2)c(F)c1 (centres unmarked) [compound 54]
18,7.81,COc1ccc(-c2ccc(OC)c(C(CC(=O)O)c3ncc(C)s3)c2)cc1 (centres unmarked) [compound 92]
19,5.38,Cc1cnc(C(CC(=O)O)c2cccc(-c3ccccc3C(N)=O)c2)s1 (centres unmarked) [compound 56]
20,0.466,COc1cc(F)c(-c2cccc(C(CC(=O)O)c3ncc(C)s3)c2)cc1F (centres unmarked) [compound 52]
21,2.34,COc1ccc(-c2ccccc2F)cc1C(CC(=O)O)c1ncc(C)s1 (centres unmarked) [compound 72]
22,9.26,COc1ccc(-c2cccc(C#N)c2)cc1C(CC(=O)O)c1ncc(C)s1 (centres unmarked) [compound 94]
23,3.73,COc1ccc(-c2ccc(F)cc2C)cc1C(CC(=O)O)c1ncc(C)s1 (centres unmarked) [compound 80]
24,0.328,Cc1cnc(C(CC(=O)O)c2cc(Cl)cc(-c3ccccc3F)c2)s1 (centres unmarked) [compound 107]

row,IC50 [µM],SMILES
1,0.228,Cc1cnc(C(CC(=O)O)c2cccc(-c3cc(Cl)ccc3F)c2)s1 (centres unmarked) [compound 50]
2,0.97,COc1ccc(-c2ccc(C)cc2F)cc1C(CC(=O)O)c1ncc(C)s1 (centres unmarked) [compound 62]
3,1.65,COc1c(C)cc(-c2cccc(C(CC(=O)O)c3nccs3)c2)cc1C (centres unmarked) [compound 25]
4,3.54,Cc1ccccc1-c1cccc(C(CC(=O)O)c2nccs2)c1 (centres unmarked) [compound 12]
5,2.59,O=C(O)CC(c1cccc(-c2ccccc2)c1)c1nccs1 (centres unmarked) [compound 10]
6,2.42,COc1ccc(-c2cccc(C)c2F)cc1C(CC(=O)O)c1ncc(C)s1 (centres unmarked) [compound 73]
7,3.2,COc1ccc(C=O)c(-c2cccc(C(CC(=O)O)c3nccs3)c2)c1 (centres unmarked) [compound 37]
8,1.94,N#CCOc1cccc(-c2cccc(C(CC(=O)O)c3nccs3)c2)c1 (centres unmarked) [compound 27]
9,0.136,Cc1cnc(C(CC(=O)O)c2cc(Cl)cc(-c3cc(F)ccc3F)c2)s1 (centres unmarked) [compound 101]
10,0.784,Cc1cccc(-c2cccc(C(CC(=O)O)c3nccs3)c2)c1 (centres unmarked) [compound 3]
11,0.567,Cc1cnc(C(CC(=O)O)c2cc(Cl)cc(-c3ccccc3C#N)c2)s1 (centres unmarked) [compound 114]
12,2.77,O=C(O)CC(c1cccc(-c2cccc(OCc3ccccc3)c2)c1)c1nccs1 (centres unmarked) [compound 35]
13,0.404,Cc1cnc(C(CC(=O)O)c2cc(Cl)cc(-c3ccccc3C(N)=O)c2)s1 (centres unmarked) [compound 110]
14,1.18,COc1cccc(-c2cccc(C(CC(=O)O)c3nccs3)c2)c1 (centres unmarked) [compound 21]
15,7.06,Cc1cnc(C(CC(=O)O)c2cccc(-c3ccncc3F)c2)s1 (centres unmarked) [compound 57]
16,21.2,O=C(O)CC(c1cccc(-c2cccnc2)c1)c1nccs1 (centres unmarked) [compound 44]
17,10.2,COc1ccc(-c2ccccc2C(F)(F)F)cc1C(CC(=O)O)c1ncc(C)s1 (centres unmarked) [compound 95]
18,1.77,COc1ccc(-c2cccc(F)c2F)cc1C(CC(=O)O)c1ncc(C)s1 (centres unmarked) [compound 69]
19,0.975,COc1ccc(-c2cc(F)ccc2F)cc1C(CC(=O)O)c1ncc(C)s1 (centres unmarked) [compound 63]
20,0.25,CC(=O)c1ccccc1-c1cc(Cl)cc(C(CC(=O)O)c2ncc(C)s2)c1 (centres unmarked) [compound 106]
21,13.7,Cc1cnc(C(CC(=O)O)c2cccc(-c3ccncc3)c2)s1 (centres unmarked) [compound 60]
22,19.4,O=C(O)CC(c1cccc(-c2ccncc2Cl)c1)c1nccs1 (centres unmarked) [compound 43]
23,1.23,COc1ccc(-c2cc(Cl)ccc2F)cc1C(CC(=O)O)c1ncc(C)s1 (centres unmarked) [compound 65]
24,3.74,COc1ccc(-c2cccc(Cl)c2)cc1C(CC(=O)O)c1ncc(C)s1 (centres unmarked) [compound 81]

# Source: patent publication US9199947B2, “Biaryl-propionic acid derivatives and their use as pharmaceuticals” (SANOFI, priority 2013, dated 2015)
